We go through two molecules from patent US20250057859A1, “CANNABICHROMENEQUINONE AND ANALOGUES THEREOF, AND METHOD OF USING COMPOSITIONS THEREOF AS ANTI-INFLAMMATORY AGENTS” (Juva Life, Inc., priority 2021, published 2025).

Data set [1] deals with T1, cannabinoid receptor 1 (CNR1) (Homo sapiens, UniProt P21554).
T1 construct: host or cells: CHO-K1
As to the kind of experiment: CB1 receptor agonist assay (cAMP Hunter eXpress, CNR1 CHO-K1). The format is cell-based. To be noted: Forskolin-stimulated CNR1 CHO-K1. The procedure:
(§1) The assays were performed in cAMP Hunter eXpress cells engineered to overexpress naturally Gi/Go-coupled wildtype cannabinoid receptor 1 (CNR1) or cannabinoid receptor 2 (CNR2) in CHO-K1 cell type. In these cells, CB1 and/or CB2 agonists inhibit production of intracellular cAMP in response to stimulation with Forskolin. cAMP levels are determined using luminogenic detection reagents provided with the Hunter eXpress cAMP detection kit.
(§2) • Assay ready CNR1 CHO-K1 cells were obtained from Eurofins/Discover X, cat #95-0071E2 • Assay ready CNR2 CHO-K1 cells were obtained from Eurofins/Discover X, cat #95-0183E2 • Hunter eXpress cAMP detection kit was also from Discover X. The kit includes all cAMP detection reagents, Forskolin, complete cell plating medium and cell assay buffer.
(§3) The Assay-Ready CNR1 CHO-K1 or CNR2 CHO-K1 cells were thawed and re-suspended in pre-warmed Assay Complete plating medium and inoculated into 96well plate at a density of 30,000 cells in 100 μL. The plates with cells were incubated for 24 h at 37° C. in 5% CO2. […] The cells were stimulated with the Forskolin/compound buffer for 30 min. […] The plate was read on Biotek Synergy Neo2 reader in luminescent mode. […] Relative luminescence units (RLUs) were plotted against compound concentration to determine apparent EC50 values of the agonist compounds.

Data set [2] concerns the target T2, cannabinoid receptor 2 (CNR2) (Homo sapiens, UniProt P34972).
T2 construct: host or cells: CHO-K1
The data set is described as follows: CB2 receptor agonist assay (cAMP Hunter eXpress, CNR2 CHO-K1). The format is cell-based. The procedure: as §1, §2, §3

The nature of data set [3]: SK-MEL-28 cell line toxicity (Cell titer Glo viability). It is filed as cell-based. The note with it: human, SK-MEL-28 melanoma cells, 72 h. The procedure:
(§4) Culture medium were purchased from ATCC, USA.
(§5) 90 nL DMSO is added to control wells. […] Luminescence was then recorded using Synergy Neo2Multi-mode Reader.

Data set [4] deals with SK-MEL-28 melanoma cell line. The description is as above. It is filed as cell-based. The note with it: Homo sapiens, SK-MEL-28, 72 h. The procedure:
as §4, §5

The nature of data set [5]: PC3 cell line toxicity (Cell titer Glo viability). To be noted: human, PC3 prostate adenocarcinoma cells, 72 h. The format is cell-based. The procedure:
as §5, §4
(Cellular ATP, detected with luciferase, serves as a proxy for viable cell number.)

In data set [6] the test system is PC3 prostate adenocarcinoma cell line. The data set is described as follows: PC3 cell line toxicity (Cell titer Glo viability). The note with it: Homo sapiens, PC-3; PC3, 72 h. It is filed as cell-based. The procedure:
as §5, §4

A short description of data set [7]: in vitro. The note with it: human. The procedure: The half maximal inhibition concentration (IC50) for each compound was determined by harvesting cells during the logarithmic growth period and then counting cell number using hemocytometer. […] Then, using a Biomek FX, test articles were serially diluted (10 mM top, 3× dilution intervals) along with a reference inhibitor (1 mM top, 3× dilution intervals) in acoustic grade Labcyte plate. Then, using an acoustic dispenser (Labcyte550), compounds were added as serially diluted to plate with cells: 90 nL of serially diluted compounds per well. 90 nL DMSO is added to control wells. Test plates were incubated for 72 h in the humidified incubator at 37° C. with 5% CO2. 25 μL of reconstituted Cell titer Glo reagent was added to each well. Each test plate was then incubated for 20 min at room temperature. Luminescence was then recorded using Synergy Neo2Multi-mode Reader.
In order to calculate intersect IC50, a dose-response curve was fitted using nonlinear regression model with a sigmoidal dose response.
The formula for calculating surviving rate is shown below, and the intersect IC50 was calculated according to the dose-response curve generated by the software:
The compounds of interest were assessed cell viability in the HL-60 acute promyelocytic leukemia cell line (ATCC® CCL-240). […] Culture medium were purchased from ATCC, USA.

The term EC50 denotes the concentration at which the effect is half-maximal. Usually viability stands for a read-out of living cells in per cent, often relative to untreated cells. In general, IC50 refers to the concentration that inhibits the measured activity by half.

T2 sequence (P34972 whole entry): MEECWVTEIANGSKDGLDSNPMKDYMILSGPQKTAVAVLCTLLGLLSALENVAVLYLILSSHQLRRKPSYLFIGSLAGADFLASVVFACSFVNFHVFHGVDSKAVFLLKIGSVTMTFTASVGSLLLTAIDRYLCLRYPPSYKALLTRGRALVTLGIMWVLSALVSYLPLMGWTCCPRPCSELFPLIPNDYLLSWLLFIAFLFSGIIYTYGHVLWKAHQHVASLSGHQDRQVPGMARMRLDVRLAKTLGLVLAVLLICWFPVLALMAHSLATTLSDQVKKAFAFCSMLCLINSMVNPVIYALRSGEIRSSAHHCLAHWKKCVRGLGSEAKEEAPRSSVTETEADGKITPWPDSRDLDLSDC
T1 sequence (P21554 whole entry): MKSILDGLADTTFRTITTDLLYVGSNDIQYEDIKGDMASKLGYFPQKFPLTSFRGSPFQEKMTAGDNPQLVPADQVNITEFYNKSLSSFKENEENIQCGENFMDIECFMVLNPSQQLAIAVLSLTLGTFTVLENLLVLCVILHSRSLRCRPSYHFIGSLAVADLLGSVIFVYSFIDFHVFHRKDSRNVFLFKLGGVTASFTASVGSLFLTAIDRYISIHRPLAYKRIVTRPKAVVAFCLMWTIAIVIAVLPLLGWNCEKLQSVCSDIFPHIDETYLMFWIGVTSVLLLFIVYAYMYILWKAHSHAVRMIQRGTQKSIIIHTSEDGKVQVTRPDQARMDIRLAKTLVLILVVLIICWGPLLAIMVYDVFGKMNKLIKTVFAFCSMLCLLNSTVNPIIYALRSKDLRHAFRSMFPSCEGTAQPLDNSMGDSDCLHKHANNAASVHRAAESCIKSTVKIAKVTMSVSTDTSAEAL

Take `CCCCCc1cc(O)c2c(c1)OC(C)(C)C1CCC(CO)=CC21` (centres unmarked) [11-hydroxy-THC]: the half-maximal effective concentration (EC50) in data set [1] turned out to be 1 nM; in data set [2] (agonist, cAMP, Forskolin-stimulated CNR2 CHO-K1) it was 51 nM. The “Selectivity for CB2 over CB1” value in data set [2] (ratio of EC50 values) was determined as 0.02 fold.

Regarding `CN[C@@H]1C[C@H]2O[C@@](C)([C@@H]1OC)n1c3ccccc3c3c4c(c5c6ccccc6n2c5c31)C(=O)NC4` [Staurosporine, staurosporine, reference compound], the viability at 72 h, 0.00017 µM in data set [3] (SK-MEL-28, 0.00017 uM) was 96.2%; in data set [5] (PC3, 0.00017 uM), 102%. Besides, the viability at 72 h, 0.00051 µM is 94.9% in data set [3] (SK-MEL-28, 0.00051 uM) and 92.2% in data set [5] (PC3, 0.00051 uM). For the same molecule, the viability at 72 h, 0.0015 µM came out at 96.7% in data set [3] (SK-MEL-28, 0.0015 uM) and 67.1% in data set [5] (PC3, 0.0015 uM). The viability at 72 h, 0.0046 µM in data set [3] (SK-MEL-28, 0.0046 uM) was determined as 94.1%; in data set [5] (PC3, 0.0046 uM), 43.2%. Also, the viability at 72 h, 0.014 µM in data set [3] (SK-MEL-28, 0.014 uM) stood at 92.9%; in data set [5] (PC3, 0.014 uM) it was 34.5%. The viability at 72 h, 0.041 µM in data set [3] (SK-MEL-28, 0.041 uM) was 70%; in data set [5] (PC3, 0.041 uM) it was 12.7%. Further, the viability at 72 h, 0.12 µM in data set [3] (SK-MEL-28, 0.12 uM) came out at 53.9%; in data set [5] (PC3, 0.12 uM), 10.3%. Moreover, the viability at 72 h, 0.37 µM in data set [3] (SK-MEL-28, 0.37 uM) was 41.1%; in data set [5] (PC3, 0.37 uM) it was 9.5%. The viability at 72 h, 1.1 µM in data set [3] (SK-MEL-28, 1.1 uM) stood at 33%; in data set [5] (PC3, 1.1 uM) it was 8.4%. Also, the viability at 72 h, 3.3 µM came to 17.3% in data set [3] (SK-MEL-28, 3.3 uM) and 8.1% in data set [5] (PC3, 3.3 uM). The viability at 72 h, 10 µM in data set [3] (SK-MEL-28, 10 uM) was 8.55%; in data set [5] (PC3, 10 uM), 6.8%. The viability at 72 h, 30 µM is 8.85% in data set [3] (SK-MEL-28, 30 uM) and 7.1% in data set [5] (PC3, 30 uM). The IC50 in data set [4] was roughly 210 nM; in data set [6], roughly 4 nM. Besides, the viability at 0.00017 µM in data set [7] is 98.3%. Moreover, the viability at 0.00051 µM in data set [7] came to 96.5%. The viability at 0.0015 µM in data set [7] came out at 98.3%. Further, the viability at 0.0046 µM in data set [7] was 90.4%. Besides, the viability at 0.014 µM in data set [7] is 66.6%. For the same molecule, the viability at 0.041 µM in data set [7] was determined as 36.3%. Further, in data set [7], the viability at 0.12 µM was determined as 27.7%. For the same molecule, the viability at 0.37 µM in data set [7] is 18.7%. Further, in data set [7], the viability at 1.1 µM was determined as 13.9%. Besides, the viability at 3.3 µM in data set [7] was determined as 11.7%. Moreover, the viability at 10 µM in data set [7] is 10.4%. For the same molecule, the viability at 30 µM in data set [7] amounted to 9.6%.
